Read-outs that look alike come from different tables or passages of the source.
How the values were obtained:
CB1 receptors [1] = biological target: T1, CB1 receptors (Mus musculus, UniProt P47746); type: biochemical
T1 construct: from tissue; host or cells: mouse brain membranes

CB1 receptors [2] = type: biochemical, mouse; conditions: 10 μM, 30 min at 30° C.
human recombinant UGT1A1 [3] = biological target: T2, human recombinant UGT1A1 (Homo sapiens, UniProt P22309); assay: Glucuronidation by recombinant human UGT1A1 (activity screen and kinetic constants); conditions: for Kinetics (model): — = No activity; for glucuronide formation, in words (FIG. 1): substrate 250 μM, UDP-GlcUA 4 mM
T2 sequence (P22309 26-533): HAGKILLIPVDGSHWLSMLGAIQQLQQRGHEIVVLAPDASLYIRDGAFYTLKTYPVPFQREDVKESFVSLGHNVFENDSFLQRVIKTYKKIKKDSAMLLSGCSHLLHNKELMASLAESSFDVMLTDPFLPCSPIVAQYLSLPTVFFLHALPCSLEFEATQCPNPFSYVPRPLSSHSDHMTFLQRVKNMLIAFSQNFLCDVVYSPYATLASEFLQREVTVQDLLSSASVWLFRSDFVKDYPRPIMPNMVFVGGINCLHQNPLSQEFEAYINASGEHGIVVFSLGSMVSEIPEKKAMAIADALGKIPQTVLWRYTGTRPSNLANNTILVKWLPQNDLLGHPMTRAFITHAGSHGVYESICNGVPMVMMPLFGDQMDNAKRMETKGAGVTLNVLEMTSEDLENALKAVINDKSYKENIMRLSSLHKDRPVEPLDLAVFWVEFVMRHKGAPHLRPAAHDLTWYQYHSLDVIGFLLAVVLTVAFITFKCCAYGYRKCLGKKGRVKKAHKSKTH
Procedure: (§1) Eight human recombinant UGT1A isoforms (UGT1A1, 1A3, 1A4, 1A6, 1A7, 1A8, 1A9, and 1A10; 5 μg) expressed as His-tag proteins in baculovirus-infected Sf9 insect cells and human liver microsomes (from one donor; HL2; 50 μg) and human intestinal microsomes (from two donors; HI36 and HI41; 50 μg) were evaluated for their ability to glucuronidate these four compounds. The concentrations of the substrate and co-substrate (i.e., UDP-GlcUA) were 250 μM and 4 mM, respectively. Glucuronidation products were analyzed by HPLC and LCMS/MS.
(§2) The kinetic constants of the glucuronidation reactions using recombinant human UGT1A1 and UGT1A10 were determined by measuring the enzyme activity in the presence of increasing concentrations of substrate (see FIG. 2).

[4] = biological target: T3, human recombinant UGT1A10 (Homo sapiens, UniProt Q9HAW8); assay: Glucuronidation by recombinant human UGT1A10 (activity screen and kinetic constants); conditions: for glucuronide formation, in words (FIG. 1): substrate 250 μM, UDP-GlcUA 4 mM
T3 sequence (Q9HAW8 26-530): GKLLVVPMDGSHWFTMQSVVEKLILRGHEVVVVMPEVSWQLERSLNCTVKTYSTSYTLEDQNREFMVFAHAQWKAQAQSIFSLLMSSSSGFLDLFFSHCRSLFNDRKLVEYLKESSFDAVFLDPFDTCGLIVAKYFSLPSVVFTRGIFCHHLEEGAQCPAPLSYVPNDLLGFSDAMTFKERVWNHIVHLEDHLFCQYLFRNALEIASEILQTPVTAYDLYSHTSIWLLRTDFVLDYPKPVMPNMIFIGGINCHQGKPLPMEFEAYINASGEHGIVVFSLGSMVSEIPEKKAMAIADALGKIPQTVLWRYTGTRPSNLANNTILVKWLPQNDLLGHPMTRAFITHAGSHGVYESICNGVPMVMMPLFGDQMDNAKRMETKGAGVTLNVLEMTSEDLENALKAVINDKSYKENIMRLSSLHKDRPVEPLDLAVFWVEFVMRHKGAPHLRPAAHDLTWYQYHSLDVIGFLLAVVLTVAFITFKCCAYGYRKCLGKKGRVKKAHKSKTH
Procedure: as §1, §2

human CB2 = biological target: T4, human CB2 (Homo sapiens, UniProt P34972); assay: CB2 receptor binding, CHO-hCB2 membranes, 3H-CP 55,940 displacement; conditions: 0.2 nM 3H-CP 55,940, 90 min room temperature
T4 construct: expressed in transfected cells; host or cells: CHO cells, stably transformed; membrane preparations
Procedure: (§3) Membrane preparations were prepared from mouse brain to examine CB1 binding. For CB2 binding, membrane preparations were prepared from CHO cells stably transformed with human CB2.

[5] = system: sepsis-induced renal injury (CLP); assay: Murine cecal ligation and puncture (CLP) model of sepsis-induced renal injury; type: in vivo, mice; conditions: 30 mg/kg i.p. 30 min prior to and 6 hr post CLP; 18 hr post CLP
Text: Control (sham) mice underwent surgery but not CLP. Each treatment group contained 4-5 mice. Renal ONOO^− generation (rhodamine fluorescence) and renal peritubular capillary perfusion were quantified using intravital video microscopy (IVVM) on anesthetized mice in each of the treatment groups.

human recombinant UGT1A1 [6] = biological target: T2, human recombinant UGT1A1; conditions: 250 μM
Procedure: as §1, §2

[7] = biological target: T3, human recombinant UGT1A10; conditions: 250 μM
Procedure: as §1, §2

[8] = biological target: T5, CB1 receptors (mouse brain-mCB1 membranes) (Mus musculus, UniProt P47746); assay: CB1 receptor binding, mouse brain membranes, 3H-CP 55,940 displacement
T5 construct: from tissue; host or cells: mouse brain membranes
Procedure: as §3

[9] = product 4′-glucuronide (4′G), USI = substrate inhibition

T1 sequence (P47746 whole entry): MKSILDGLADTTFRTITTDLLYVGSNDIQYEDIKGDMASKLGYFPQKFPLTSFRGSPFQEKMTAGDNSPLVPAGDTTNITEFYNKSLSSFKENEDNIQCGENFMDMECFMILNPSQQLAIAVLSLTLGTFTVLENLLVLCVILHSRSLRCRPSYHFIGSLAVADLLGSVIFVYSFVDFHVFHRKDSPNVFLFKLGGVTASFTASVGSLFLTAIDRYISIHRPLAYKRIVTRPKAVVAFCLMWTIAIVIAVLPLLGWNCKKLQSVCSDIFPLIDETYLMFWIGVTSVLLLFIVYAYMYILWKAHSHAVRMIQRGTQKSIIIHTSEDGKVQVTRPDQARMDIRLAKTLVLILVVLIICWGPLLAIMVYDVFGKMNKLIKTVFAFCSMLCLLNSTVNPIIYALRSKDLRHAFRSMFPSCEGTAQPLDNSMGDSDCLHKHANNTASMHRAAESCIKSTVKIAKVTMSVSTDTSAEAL
T4 sequence (P34972 whole entry): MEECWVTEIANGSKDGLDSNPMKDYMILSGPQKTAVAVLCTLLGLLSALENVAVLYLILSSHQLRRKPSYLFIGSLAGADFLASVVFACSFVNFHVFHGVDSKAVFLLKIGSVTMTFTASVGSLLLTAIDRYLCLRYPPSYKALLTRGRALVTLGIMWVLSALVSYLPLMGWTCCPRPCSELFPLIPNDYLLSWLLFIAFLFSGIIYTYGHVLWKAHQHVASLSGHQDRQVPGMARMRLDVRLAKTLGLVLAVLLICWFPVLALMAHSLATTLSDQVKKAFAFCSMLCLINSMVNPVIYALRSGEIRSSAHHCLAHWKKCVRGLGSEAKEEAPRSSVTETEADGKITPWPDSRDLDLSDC
T5 sequence (P47746 whole entry): as the sequence (P47746 whole entry) above

Row | Compound | effect on basal G-protein activity, in words (CB1 receptors [2]) | Kinetics (model) (human recombinant UGT1A1 [3]; product 3-glucuronide (3G)) | Kinetics (model) (human recombinant UGT1A1 [3]; product 4′-glucuronide (4′G)) | Kinetics (model) [4, 9] | Ki (human CB2) [µM] | glucuronide formation, in words (FIG. 1) (human recombinant UGT1A1 [3]) | glucuronide formation, in words (FIG. 1) [4] | other results
1 | CC1=CC[C@@H]2[C@@H](C1)c1c(O)cc(CC#CCCCNS(C)(=O)=O)cc1OC2(C)C [O-2050, reference compound] | – | – | – | – | – | – | – | effect of co-incubation on CP-55,940 stimulation and AM251 inhibition of G-protein activity (CB1 receptors [1]; data not shown): blocked
2 | Oc1cc(O)cc(/C=C/c2ccc(O)c(O)c2)c1 [tPice, trans-piceatannol] | markedly reduced | M-M | M-M | Hill | – | – | – | Kinetics (model) ([4]; product 3-glucuronide (3G), — = No activity): M-M
3 | Oc1ccc(/C=C/c2cc(O)cc(O)c2)cc1 [tRes, trans-resveratrol] | little effect | – | – | – | 65.5 ± 12 | – | – | RNS generation in the kidney (rhodamine fluorescence, IVVM) [5]: blocked RNS generation in the kidney; renal peritubular capillary perfusion (IVVM) [5]: preserved renal capillary perfusion; glucuronide formation, in words (FIG. 1) (human recombinant UGT1A1 [6]): glucuronidated to 3-O— and 4′-O-Glucs; glucuronide formation, in words (FIG. 1) [7]: glucuronidated to 3-O— and 4′-O-Glucs
4 | CC(C)/C=C/c1c(O)cc(/C=C/c2ccc(O)cc2)cc1O [tA3, trans-arachidin-3] | little effect | M-M | M-M | USI | 11.3 ± 0.6 | significant inhibition of 3-O-glucuronidation | significant inhibition of 3-O-glucuronidation | Kinetics (model) ([4]; product 4′-glucuronide (4′G), USI = substrate inhibition, listed as 1A3): substrate inhibition kinetics
5 | CCCCCCC(C)(C)c1ccc([C@@H]2C[C@H](O)CC[C@H]2CCCO)c(O)c1 [CP-55,940, reference compound] | – | – | – | – | – | – | – | effect on G-protein activity, in words (CB1 receptors [1]; 1 μM, 30 min at 30° C.): stimulated; maximal response produced by CP-55,940 (CB1 receptors [1]; CP-55,940 alone): 0.34+/−0.03 pmole/mg protein
6 | trans-arachidin-1 [tA1] | markedly reduced | – | – | substrate inhibition kinetics and USI | 12.6 ± 1.7 | completely blocked formation of any Gluc | formation of the 3-O-Gluc | enhancement of binding affinity for CB1 (isoprenyl plus additional hydroxyl group) [8]: 2 fold; increase (shift-to-the-right) in the ED50 of CP-55,940 (CB1 receptors [1]; 10 μM tA-1): 7 fold; maximal response produced by CP-55,940 in presence of test compound (CB1 receptors [1]; with tA-1 (10 μM)): 0.22+/−0.04 pmole/mg protein

From patent US9095598B2, “Stilbenoid derivatives and their uses” (The Board of Trustees of the University of Arkansas, priority 2010, dated 2015)
